In one series the test system is Bacillus subtilis. The series can be described thus: Antibacterial activity against Bacillus subtilis assessed as growth inhibition incubated for 24 hrs at 37 degC by agar well diffusion method. Type of series: functional. On the technique in general: In agar diffusion tests the substance spreads into inoculated agar from a disc or well.
The next series concerns Salmonella. The series can be described thus: Antibacterial activity against Salmonella assessed as growth inhibition incubated for 24 hrs at 37 degC by agar well diffusion method. The class given is functional.
The test system of a further series is MCF7. As to the kind of experiment: Cytotoxicity against human MCF7 cells assessed as cell death after 24 hrs by MTT assay. The class given is functional, cell-based. Particulars: MCF7, 24 h.
The subject of a further series is HeLa. As to the kind of experiment: Cytotoxicity against human HeLa cells assessed as cell death after 24 hrs by MTT assay. Type of series: functional, cell-based.
The next series relates to Staphylococcus aureus. As to the kind of experiment: Antibacterial activity against Staphylococcus aureus assessed as growth inhibition incubated for 24 hrs at 37 degC by agar well diffusion method. Type of series: functional.
The next series deals with Escherichia coli. As to the kind of experiment: Antibacterial activity against Escherichia coli assessed as growth inhibition incubated for 24 hrs at 37 degC by agar well diffusion method. The class given is functional.
Series [1] in a line: Stability of the compound in GSH at 10^-5 M after 48 hrs by UV-vis spectroscopic analysis. Type of series: physicochemical. The following applies: 10 µM.

In brackets after ≈: the same amount, converted by molar mass.

One may read the MIC as the lowest concentration found to suppress growth. As to `O=C(O)c1cn(C2CC2)c2cc(N3CCNCC3)c(F)cc2c1=O` [CIPROFLOXACIN], the values for the MIC in the series on Bacillus subtilis and with Salmonella were 25 µg/mL (≈ 75.4 µM) and 10 µg/mL (≈ 30.2 µM), respectively.

The term IC50 denotes the concentration at which inhibition is half-maximal. `c1ccc(-c2nc3ccccc3s2)cc1` [2-PHENYLBENZO[D]THIAZOLE]: the half-maximal inhibitory concentration (IC50) in the series on MCF7 amounted to 18.5 µM; with HeLa, 22.1 µM. For the same compound, the MIC with Staphylococcus aureus worked out at 50 µg/mL (≈ 237 µM); with Escherichia coli, 50 µg/mL (≈ 237 µM); with Bacillus subtilis, 25 µg/mL (≈ 118 µM); with Salmonella, 25 µg/mL (≈ 118 µM). Further, the Stability result in series [1] is “Stable”.

`Fc1ccc(-c2nc3ccccc3s2)cc1`: the IC50 in the series on MCF7 was 9.85 µM; in the series on HeLa it was 16.6 µM. Besides, the MIC in the series on Staphylococcus aureus is 6.25 µg/mL (≈ 27.3 µM); in the series on Escherichia coli it was 6.25 µg/mL (≈ 27.3 µM); in the series on Bacillus subtilis, 12.5 µg/mL (≈ 54.5 µM); with Salmonella it was 12.5 µg/mL (≈ 54.5 µM).

For `c1csc(-c2nc3ccccc3s2)c1`, the concentration for half-maximal inhibition (IC50) with MCF7 stood at 22.6 µM; in the series on HeLa, 28.5 µM. In addition, the minimal inhibitory concentration (MIC) with Staphylococcus aureus is 12.5 µg/mL (≈ 57.5 µM); with Escherichia coli it was 12.5 µg/mL (≈ 57.5 µM); with Bacillus subtilis, 25 µg/mL (≈ 115 µM); with Salmonella, 25 µg/mL (≈ 115 µM).

In the case of `COc1cccc(-c2nc3ccccc3s2)c1O`, the IC50 in the series with MCF7 was 28.6 µM; in the series with HeLa it was 32.6 µM. Moreover, the minimal inhibitory concentration (MIC) in the series with Staphylococcus aureus, in the series with Escherichia coli, in the series on Bacillus subtilis and in the series with Salmonella was more than 200 µg/mL each time.

In the case of `c1coc(-c2nc3ccccc3s2)c1`, the 50% inhibitory concentration (IC50) with MCF7 was found to be 17.6 µM; in the series on HeLa it was 22.6 µM. The MIC in the series on Staphylococcus aureus, with Escherichia coli, with Bacillus subtilis and in the series with Salmonella was 50 µg/mL (≈ 248 µM) in each case.

Turning to `Brc1cccc(-c2nc3ccccc3s2)c1`, the values for the 50% inhibitory concentration (IC50) in the series with MCF7 and in the series with HeLa were 10.5 µM and 17.4 µM, respectively. In addition, the MIC with Staphylococcus aureus, with Escherichia coli, in the series on Bacillus subtilis and in the series on Salmonella was 12.5 µg/mL (≈ 43.1 µM) each time.

Take `c1ccc2[nH]c(-c3nc4ccccc4s3)cc2c1`: the half-maximal inhibitory concentration (IC50) in the series with MCF7 worked out at 9.26 µM; in the series with HeLa, 15.2 µM. Moreover, the MIC with Staphylococcus aureus, with Escherichia coli, in the series with Bacillus subtilis and with Salmonella was 3.12 µg/mL (≈ 12.5 µM) each time.

For `Clc1ccccc1-c1nc2ccccc2s1`, the results for the 50% inhibitory concentration (IC50) in the series on MCF7 and with HeLa were 10.7 µM and 18.2 µM, respectively. The minimum inhibitory concentration (MIC) in the series on Staphylococcus aureus, in the series with Escherichia coli, in the series on Bacillus subtilis and with Salmonella was 12.5 µg/mL (≈ 50.9 µM) throughout.

Regarding `Oc1ccccc1-c1nc2ccccc2s1`, the half-maximal inhibitory concentration (IC50) in the series on MCF7 is 26.8 µM; in the series with HeLa, 30.6 µM. The minimum inhibitory concentration (MIC) in the series on Staphylococcus aureus, in the series on Escherichia coli, in the series with Bacillus subtilis and in the series on Salmonella was 100 µg/mL (≈ 440 µM) in each case.

`Cc1ccccc1-c1nc2ccccc2s1`: the figures for the IC50 with MCF7 and in the series with HeLa were 20.4 µM and 28.2 µM, respectively. Also, the MIC in the series on Staphylococcus aureus, in the series with Escherichia coli, in the series on Bacillus subtilis and with Salmonella was 100 µg/mL (≈ 444 µM) each time.

On to `c1ccc2cc(-c3nc4ccccc4s3)ccc2c1`, for which the results for the IC50 in the series with MCF7 and in the series with HeLa were 42.3 µM and 48.2 µM, respectively. Further, the minimum inhibitory concentration (MIC) with Staphylococcus aureus, in the series on Escherichia coli, with Bacillus subtilis and with Salmonella was more than 200 µg/mL each time.

In the case of `NC[C@H]1O[C@H](O[C@H]2[C@H](O)[C@@H](O[C@H]3O[C@H](CO)[C@@H](O)[C@H](N)[C@H]3O)[C@H](N)C[C@@H]2N)[C@H](N)C[C@@H]1O` [TOBRAMYCIN], the minimal inhibitory concentration (MIC) with Staphylococcus aureus was 1.5 µg/mL (≈ 3.21 µM); in the series with Escherichia coli it was 3 µg/mL (≈ 6.42 µM); with Bacillus subtilis, 3 µg/mL (≈ 6.42 µM); with Salmonella it was 3 µg/mL (≈ 6.42 µM).

For the compound GENTAMICIN, the MIC came to 1 µg/mL in the series on Staphylococcus aureus, 2 µg/mL in the series on Escherichia coli, 2 µg/mL in the series with Bacillus subtilis and 2 µg/mL in the series on Salmonella.

Consider `c1ccc(-c2nc3ccccc3s2)nc1`, for which the half-inhibitory concentration (IC50) in the series on MCF7 is 20.4 µM; with HeLa, 27.5 µM. Also, the minimal inhibitory concentration (MIC) with Staphylococcus aureus stood at 6.25 µg/mL (≈ 29.4 µM); in the series on Escherichia coli it was 12.5 µg/mL (≈ 58.9 µM); in the series on Bacillus subtilis it was 12.5 µg/mL (≈ 58.9 µM); in the series on Salmonella, 12.5 µg/mL (≈ 58.9 µM). In addition, the Stability entry in series [1] is recorded as “Stable”.

(Values after ChEMBL document CHEMBL3739282, “An efficient green synthesis of 2-arylbenzothiazole analogues as potent antibacterial and anticancer agents” (Bioorg Med Chem Lett, 2016).)
